# Experimental data: paper PMC6960228, “Ethoxysanguinarine, a Novel Direct Activator of AMP-Activated Protein Kinase, Induces Autophagy and Exhibits Therapeutic Potential in Breast Cancer Cells” (Frontiers in Pharmacology, 2020)
# Experiments:
# [1] = system: seven BC cell lines; assay: MTT assay, summary over BC cell lines; format: cell-based; settings: Homo sapiens, range over BC cell lines
# Excerpt: Human BC cell lines MCF-7, MDA-MB-231, DMA-MB-436, SK-BR3, MDA-MB-468, MDA-MB-453, and MDA-MB-435S and non-tumorigenic MCF-10A human mammary epithelial cells were obtained from American Type Culture Collection (ATCC; Manassas, VA, USA). MCF-7, SK-BR3, MDA-MB-231, and MDA-MB-436 cells were maintained in Dulbecco’s modified Eagle’s medium (DMEM; high glucose; Gibco; Thermo Fisher Scientific, Inc., Waltham, MA, USA) supplemented with 10% fetal bovine serum (FBS; HyClone; Logan, UT, USA) and antibiotics and incubated in a humidified atmosphere with 5% CO2 at 37°C. MDA-MB-468, MDA-MB-453, and MDA-MB-435S cells were maintained in Leibovitz’s L-15 (Gibco) supplemented with 10% FBS and antibiotics and incubated in a humidified atmosphere without CO2 at 37°C. MCF-10A cells were maintained in DMEM/F12 medium containing 5% horse serum (HS), insulin ([…]), epidermal growth factor (EGF, 20 ng/mL), choleratoxin ([…]), hydrocortisone ([…]), penicillin (50 U/mL), and streptomycin (50 U/mL), and incubated in a humidified atmosphere with CO2 at 37°C.
# Cells were seeded into 96-well plate and pre-cultured for 24 h, then treated with Eth for 24. Cell cytotoxicity was determined by MTT assay. […]
# [2] = system: AMPKα; assay: Streptavidin agarose affinity assay; format: binding, human; settings: Bio-Eth (4 μM) with or without Eth (12 μM), 3 h
# Method: Cell pellets were lysed and the supernatant collection was incubated with indicated antibodies overnight at 4°C, after which protein A/G Plus beads (Santa Cruz Biotechnology) were added and incubated at 4°C for 4 h. The beads were washed 4 times in NETN buffer (1% NP-40, 2 mM EDTA, 40 mM Tris-HCl, 137 mM NaCl, pH 7.4), resuspended in SDS-PAGE loading buffer and boiled for 5 min. For streptavidin agarose affinity assay, cells upon Bio-Eth were lysed; the lysates were incubated with streptavidin agarose, washed and boiled in SDS-PAGE loading buffer. […] Western blot assays were performed.
# Figure 4 Eth is a direct activator of AMPK. (A): MCF-7, MDA-MB-231, or MDA-MB-436 cells were treated with increasing concentrations of Eth for 24 h, and AMPK activity assay was performed. (B): The binding mode of Eth docked into AMPK. (C): The binding mode of Eth docked into AMPK. α subunit is green, β subunit is cyan, γ subunit is magenta and Eth is gold. (D): Details of the binding site of Eth in the ADaM site of AMPK. The main residues involved in drug interactions are shown as labeled green sticks. α subunit is green, β subunit is cyan. The pSER-108 was shown in stick and colored by gold. (E) The interaction pattern of Eth with the residues. […] (H): Viability of MCF-7, MDA-MB-231 or MDA-MB-436 cells exposed to Biotin-Eth as determined by MTT assay. […]
# [3] = Body weight of xenografted mice; format: in vivo, nude mice; settings: i.p. 2 mg/kg four times a week for 4 weeks
# Method: Female nude immunodeficient mice (nu/nu) (weighing ~16 g, 5-week-old) were purchased from Hunan SJA Laboratory Animal Co., Ltd. (Changsha, China), and maintained under specific pathogen-free conditions. Mice were given free access to sterile water and to a standard diet, and maintained under controlled conditions of temperature (22–24°C), humidity (40–70%), and light (12 h light-dark cycles). The present study was approved by Animal Ethics Committee of Hubei University of Medicine. The mice were subcutaneously injected with human BC MDA-MB-231 cells (5 × 10^6 cells which were suspended in 100 μL DMEM) into the right flank of each mouse. Treatments started when tumors reached a palpable size (0.5 cm in diameter). Mice were randomly divided into the following two groups: control group (vehicle; 0.8% DMSO, 12% cremophor, and 8% ethanol in normal saline; n = 8) and Eth-treated group (intraperitoneal injection of […] Eth; n = 8). The mice were treated 5 times per week for a total of […]. Caliper measurements of the longest perpendicular tumor diameters were performed twice a week to estimate the tumor volume, using the following formula: 4π/3 × (width/2)^2 × (length/2), representing the three-dimensional volume of an ellipse. Animals were sacrificed when tumors reached 1.5 cm or if the mice appeared moribund to prevent unnecessary morbidity to the mice. […]
compound,measurement,setting,value
"CCOC1c2c(ccc3c2OCO3)-c2ccc3cc4c(cc3c2N1C)OCO4 (stereo not drawn) [Eth, Ethoxysanguinarine]",IC50,[1],2.63 to 9.15 µM
same,binding of Bio-Eth to AMPKα in presence of unlabeled Eth,[2],significantly attenuated by unlabeled Eth
same,body weight of the mice,[3],did not significantly reduce the body weight
